Measurements published in PMC12817919 (Journal of Virology, 2025).
Where two headings read alike, the source gives them in different places.

What was measured:
wild-type RSV = assay: microbe, parasite or virus in culture; format: cell-based
RSV K394R = format: cell-based, respiratory syncytial virus (RSV); settings: for Fold resistance (RSV K394R): fold change in the EC50 relative to that of wild-type RSV
RSV K399N = format: cell-based, respiratory syncytial virus (RSV); settings: for Fold resistance (RSV K399N): fold change in the EC50 relative to that of wild-type RSV
RSV T400A = format: cell-based, respiratory syncytial virus (RSV); settings: for Fold resistance (RSV T400A): fold change in the EC50 relative to that of wild-type RSV
RSV A2 P18 (Control) = assay: Antiviral activity against passaged virus in HEp-2 cells (FFA); format: cell-based, respiratory syncytial virus (RSV); settings: human respiratory syncytial virus, HEp-2, MOI 0.2, FFA
[1] = test system: Lonafarnib escape virus populations P18 (RSV A2); assay: as above; format: cell-based, respiratory syncytial virus (RSV); settings: human respiratory syncytial virus, HEp-2, MOI 0.2, FFA
RSV ON1 P18 (Control) = assay: as above; format: cell-based, respiratory syncytial virus (RSV); settings: human respiratory syncytial virus, HEp-2, MOI 0.2, FFA
[2] = test system: Lonafarnib escape virus populations P18 (RSV ON1); assay: as above; format: cell-based, respiratory syncytial virus (RSV); settings: human respiratory syncytial virus, HEp-2, MOI 0.2, FFA
RSV V127G = format: cell-based, respiratory syncytial virus (RSV)
RSV L141F = format: cell-based, respiratory syncytial virus (RSV)
RSV T400I = format: cell-based, respiratory syncytial virus (RSV)
RSV F488L = format: cell-based, respiratory syncytial virus (RSV)
RSV A2 [3] = assay: microbe, parasite or virus in culture; format: cell-based; settings: human respiratory syncytial virus; HEp-2 (RSV A2, MOI = 0.2), 72 h, FFA
RSV ON1 = assay: microbe, parasite or virus in culture; format: cell-based; settings: human respiratory syncytial virus; HEp-2 (RSV ON1, MOI = 0.2), 72 h, FFA
in vitro = format: cell-based; settings: human; HEp-2 cells, 72 h, CCK8
Protocol: HEp-2 cells (1.3 × 10^4) were seeded in 96-well plates for 20 h. The indicated compounds in a 3-fold dilution series were added to the cells, and three wells were performed in parallel. After 72 h, the cells were incubated with DMEM containing 10% FBS and CCK8 reagent (Beyotime Biotechnology, cat#C0038) for 30 min at 37°C. The absorbance at 450 nm and 600 nm was read using the PerkinElmer EnSight reader.

[4] = test system: DS-Cav1 mutants (T335I, K394R, S398L, K399N, T400A, and D401E); format: binding; settings: D401E compared with DS-Cav1
RSV F protein mutants = assay: GFP-split cell-cell fusion assay mediated by transfected F or F mutants; format: cell-based, respiratory syncytial virus (RSV); settings: 5, 1, 0.5 µM, 24 h, HEK293T GFP-split cells
Protocol: (§1) Cell–cell fusion assays were performed using a split-GFP system (GFP1-10 and GFP11) ([76]). Briefly, HEK293T cells stably expressing GFP1-10 were transfected with 1,000 ng of plasmids encoding either wild-type F or F mutants containing various amino acid substitutions. Alternatively, the cells were infected with RSV and treated with 0.1% DMSO or the indicated compounds at concentrations of 5, 1, and 0.5 µM. Then, the transfected or infected cells were co-cultured with HEK293T cells stably expressing GFP11 at a 1:1 ratio (8 × 10^4 cells/well) for 24 h in a 96-well plate. Images were acquired per well on an Operetta CLS High-Content Screening System (PerkinElmer).

RSV = settings: oral administration; cited from earlier work
RSV F protein [5] = target: T1, RSV F protein (Human respiratory syncytial virus A, UniProt P03420); format: cell-based; parameters: expressed in transfected cells; host or cells: HEK293T; settings: HEK293T cells expressing RSV F, western blot
Target sequence in this assay (P03420 137-574): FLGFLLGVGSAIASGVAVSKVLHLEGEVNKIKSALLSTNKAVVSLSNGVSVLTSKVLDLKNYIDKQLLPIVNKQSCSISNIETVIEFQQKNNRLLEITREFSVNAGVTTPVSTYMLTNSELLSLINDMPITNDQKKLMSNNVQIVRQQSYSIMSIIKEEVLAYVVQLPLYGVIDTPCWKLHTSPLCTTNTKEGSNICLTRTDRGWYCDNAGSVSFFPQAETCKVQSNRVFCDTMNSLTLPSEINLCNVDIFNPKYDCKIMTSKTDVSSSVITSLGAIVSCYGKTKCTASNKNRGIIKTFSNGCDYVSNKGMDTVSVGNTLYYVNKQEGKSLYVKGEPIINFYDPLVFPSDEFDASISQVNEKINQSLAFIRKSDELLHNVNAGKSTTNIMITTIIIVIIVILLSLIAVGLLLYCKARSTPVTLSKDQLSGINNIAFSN
Target sequence in this assay (P03420 26-109): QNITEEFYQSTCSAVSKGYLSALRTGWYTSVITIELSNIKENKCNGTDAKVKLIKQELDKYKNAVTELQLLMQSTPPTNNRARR

RSV A2 [6] = assay: GFP-split cell-cell fusion assay mediated by RSV infection; format: cell-based, respiratory syncytial virus (RSV); settings: RSV A2 MOI 1; 5, 1, 0.5 µM, 24 h, HEK293T GFP-split cells
Protocol: as §1

RSV ON1-GFP [7] = assay: Antiviral efficacy in primary human bronchial epithelial cells (GFP intensity); format: cell-based, respiratory syncytial virus (RSV); settings: HBECs, MOI 2, 1 µM, 72 h
Protocol: The inhibitory effects of compounds on RSV ON1-GFP were evaluated in HBEC. […] At 72 h post-infection, the infected cells were visualized using an EVOS M5000 Cell Imaging System (Thermo Fisher Scientific).

RSV ON1-GFP [8] = assay: Antiviral drug assay using lung airway organoids; settings: 96 h, MOI 1
Excerpt: In brief, HBECs were initially cultured in PneumaCult-Ex Plus Medium ([sequence] Technologies, cat#05040), then seeded at 2 × 10⁵ cells/well into anti-adherence rinsing solution ([sequence] Technologies, cat#07010)-treated AggreWell400 24-well plates ([sequence] Technologies, cat#34415). They were maintained in PneumaCult Apical-Out Airway Organoid Medium ([sequence] Technologies, cat#100-0620) for 6 days. Subsequently, the cells were transferred to similarly treated flat-bottom 24-well plates and cultured in the same medium for an additional 9 days.
The airway organoids were infected with RSV ON1-GFP at an MOI of 1 for 4 h. […] At 96 h post-infection, cell-free medium was harvested, and a TCID50 assay was performed to determine the viral titer. The organoids were fixed in parallel in 4% PFA, permeabilized with 0.5% Triton X-100 (1 h), blocked with 5% BSA (Macklin, cat#B824162; 2 h), and incubated overnight at 4°C with primary antibodies: Goat anti-Human p63/TP73L polyclonal antibody (R&D Systems, cat#AF1916), Rabbit anti-Human Mucin 5AC polyclonal antibody (Abways, cat#CY6826), and Mouse anti-acetylated tubulin monoclonal antibody (Sigma-Aldrich, cat#T7451). […] The GFP fluorescence intensity was quantified using ImageJ analysis software (RRID: SCR_003070; National Institutes of Health, NIH).

RSV F protein [9] = target: T1, RSV F protein; format: cell-based; parameters: HEp-2 cells were infected with RSV (MOI = 10); endogenous in cells; host or cells: HEp-2 cells infected with RSV (viral protein made in the infected cell); settings: HEp-2, RSV MOI 10, 1 µM, 18 h
Target sequence in this assay (P03420 137-574): as the sequence (P03420 137-574) above
Target sequence in this assay (Q96SW2 whole entry, further chain, the tested form may be a part): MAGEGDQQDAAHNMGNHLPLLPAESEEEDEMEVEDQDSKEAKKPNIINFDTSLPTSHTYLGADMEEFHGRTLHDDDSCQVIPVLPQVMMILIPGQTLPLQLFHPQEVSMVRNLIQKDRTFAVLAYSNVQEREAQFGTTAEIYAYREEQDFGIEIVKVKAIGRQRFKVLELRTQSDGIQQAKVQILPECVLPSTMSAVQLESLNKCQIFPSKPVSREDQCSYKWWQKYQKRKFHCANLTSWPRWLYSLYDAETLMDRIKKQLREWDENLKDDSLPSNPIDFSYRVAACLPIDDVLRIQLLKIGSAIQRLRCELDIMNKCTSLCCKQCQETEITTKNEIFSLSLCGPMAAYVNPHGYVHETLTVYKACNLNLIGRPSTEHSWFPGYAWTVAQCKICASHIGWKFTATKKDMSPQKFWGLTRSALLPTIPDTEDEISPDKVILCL
Target sequence in this assay (P03420 26-109): as the sequence (P03420 26-109) above

[10] = human respiratory syncytial virus, wild-type RSV, Table 2 cross-resistance experiment, HEp-2, read-out: EC50 RSV
[11] = Table 2 cross-resistance experiment, HEp-2, read-out: EC50 RSV K394R
[12] = Table 2 cross-resistance experiment, HEp-2, read-out: EC50 RSV K399N
[13] = Table 2 cross-resistance experiment, HEp-2, read-out: EC50 RSV T400A

## Cc1ccc2nc(N3CCS(=O)(=O)c4ccccc4C3)nc(NCC3(N)COC3)c2c1 [AK0529]
wild-type RSV; [10]
  EC50: 1.3 nM
RSV K394R; [11]
  EC50: 6550 nM
RSV K394R
  Fold resistance (RSV K394R): 4,983.3
RSV K399N; [12]
  EC50: 2250 nM
RSV K399N
  Fold resistance (RSV K399N): 1,713.3
RSV T400A; [13]
  EC50: 9850 nM
RSV T400A
  Fold resistance (RSV T400A): 7,491.3

## Cc1cn2nc([C@@H]3CCCCN3C(=O)c3cc(Cl)ccc3NS(C)(=O)=O)cc2nc1N1CC[C@H](N)C1 [GS-5806]
wild-type RSV; [10]
  EC50: 0.1 nM
RSV K394R; [11]
  EC50: 192 nM
RSV K394R
  Fold resistance (RSV K394R): 1,673.9
RSV K399N; [12]
  EC50: 4.4 nM
RSV K399N
  Fold resistance (RSV K399N): 38.3
RSV T400A; [13]
  EC50: 28.8 nM
RSV T400A
  Fold resistance (RSV T400A): 250.1

## CS(=O)(=O)CCCn1c(Cn2c(=O)n(CC(F)(F)F)c3ccncc32)cc2cc(Cl)ccc21 [JNJ-53718678]
wild-type RSV; wild-type RSV, Table 2 cross-resistance experiment, HEp-2, read-out: EC50 RSV
  EC50: 0.7 nM
RSV K394R; [11]
  EC50: 10100 nM
RSV K394R
  Fold resistance (RSV K394R): 15,582.2
RSV K399N; [12]
  EC50: 248 nM
RSV K399N
  Fold resistance (RSV K399N): 382.2
RSV T400A; [13]
  EC50: 11600 nM
RSV T400A
  Fold resistance (RSV T400A): 17,920.3

## NC(=O)N1CCC(CC(=O)N2CCC([C@H]3c4ncc(Br)cc4CCc4cc(Cl)cc(Br)c43)CC2)CC1 [Lonafarnib]
RSV A2 P18 (Control); HEp-2, Lineage 1
  EC50: 40 nM
RSV A2 P18 (Control); HEp-2, Lineage 2
  EC50: 50 nM
RSV A2 P18 (Control); HEp-2, Lineage 3
  EC50: 40 nM
[1]; HEp-2, Lineage 1
  EC50: 800 nM
[1]; HEp-2, Lineage 2
  EC50: 1080 nM
[1]; HEp-2, Lineage 3
  EC50: 790 nM
RSV ON1 P18 (Control); HEp-2, Lineage 1
  EC50: 90 nM
RSV ON1 P18 (Control); HEp-2, Lineage 2
  EC50: 130 nM
RSV ON1 P18 (Control); HEp-2, Lineage 3
  EC50: 130 nM
[2]; HEp-2, Lineage 1
  EC50: 3360 nM
[2]; HEp-2, Lineage 2
  EC50: 4100 nM
[2]; HEp-2, Lineage 3
  EC50: 3500 nM
wild-type RSV; human respiratory syncytial virus, 72 h, Wild-type, HEp-2, MOI 0.2, 3 days, FFA, read-out: EC50
  EC50: 46 ± 10 nM
wild-type RSV; human respiratory syncytial virus, HEp-2, Wild-type, EC90 = 9^1/HillSlope*EC50
  EC90: 190 ± 120 nM
wild-type RSV; [10]
  EC50: 45.6 nM
RSV V127G; EC90 = 9^1/HillSlope*EC50
  EC90: 177 ± 38 nM
RSV V127G; HEp-2, MOI 0.2, 3 days, FFA
  EC50: 44 ± 5 nM
RSV L141F; EC90 = 9^1/HillSlope*EC50
  EC90: 631 ± 125 nM
RSV L141F; HEp-2, MOI 0.2, 3 days, FFA
  EC50: 79 ± 19 nM
RSV K394R; K394R, EC90 = 9^1/HillSlope*EC50
  EC90: 15000 ± 7330 nM
RSV K394R; K394R, HEp-2, MOI 0.2, 3 days, FFA, read-out: EC50
  EC50: 5130 ± 1690 nM
RSV K394R; [11]
  EC50: 3840 nM
RSV K399N; K399N, EC90 = 9^1/HillSlope*EC50
  EC90: 1550 ± 277 nM
RSV K399N; K399N, HEp-2, MOI 0.2, 3 days, FFA, read-out: EC50
  EC50: 450 ± 32 nM
RSV K399N; [12]
  EC50: 406 nM
RSV T400A; T400A, EC90 = 9^1/HillSlope*EC50
  EC90: 4640 ± 440 nM
RSV T400A; T400A, HEp-2, MOI 0.2, 3 days, FFA, read-out: EC50
  EC50: 1520 ± 127 nM
RSV T400A; [13]
  EC50: 1120 nM
RSV T400I; EC90 = 9^1/HillSlope*EC50
  EC90: 4610 ± 663 nM
RSV T400I; HEp-2, MOI 0.2, 3 days, FFA
  EC50: 1510 ± 184 nM
RSV F488L; EC90 = 9^1/HillSlope*EC50
  EC90: 1900 ± 160 nM
RSV F488L; HEp-2, MOI 0.2, 3 days, FFA
  EC50: 700 ± 69 nM
RSV A2 [3]
  EC50: 40 ± 2 nM
RSV ON1
  EC50: 60 ± 20 nM
In vitro
  CC50: 17900 ± 1130 nM
[4]
  binding affinity for lonafarnib (SPR): significantly decreased the binding affinity
RSV F protein mutants; T335I, S398L, K394R, K399I/N, T400A/I, and D401E mutants
  inhibition of mutant-induced cell-cell fusion activity: did not or only slightly inhibit
RSV F protein mutants; V76A, K80N, L119I, and D392G/N mutants
  inhibition of mutant-induced cell-cell fusion activity: significantly inhibited
RSV
  RSV load in murine infection model: dose-dependent reduction in the RSV load
RSV F protein [5]
  effect on F protein levels: did not affect F protein levels

## NCc1ccc2c(c1)nc(CN1C(=O)C3(CC3)c3ccc(F)cc31)n2CCCC(F)(F)F [RV521]
wild-type RSV; [10]
  EC50: 0.1 nM
RSV K394R; [11]
  EC50: 179 nM
RSV K394R
  Fold resistance (RSV K394R): 2,462.8
RSV K399N; [12]
  EC50: 0.4 nM
RSV K399N
  Fold resistance (RSV K399N): 5.4
RSV T400A; [13]
  EC50: 12.6 nM
RSV T400A
  Fold resistance (RSV T400A): 173.6

## O=C1CCC(N2C(=O)c3cccc(NCCOCCOCCOCCC(=O)N4CCC(CC(=O)N5CCC([C@H]6c7ncc(Br)cc7CCc7cc(Cl)cc(Br)c76)CC5)CC4)c3C2=O)C(=O)N1 (stereo partly drawn) [compound 0179841, 4-((2-(2-(2-(3-(4-(2-(4-((R)−3,10-dibromo-8-chloro-6,11-dihydro-5H-benzo[5,6]cyclohepta[1,2-b]pyridin-11-yl)piperidin-1-yl)−2-oxoethyl)piperidin-1-yl)−3-oxopropoxy)ethoxy)ethoxy)ethyl)amino)−2-(2,6-dioxopiperidin-3-yl)isoindoline-1,3-dione]
RSV A2 [3]
  EC50: 450 ± 40 nM
RSV ON1
  EC50: 460 ± 30 nM
In vitro
  CC50: > 100000 nM
RSV A2 [6]
  inhibition of RSV-induced cell-cell fusion activity: significantly inhibited
RSV ON1-GFP [7]
  RSV infection level (GFP intensity): significant decrease in the RSV infection level
RSV ON1-GFP [8]; 5 µM, TCID50 of supernatant
  reduction of viral titers compared with the DMSO control: more than 100 fold
RSV ON1-GFP [8]; 5, 1, 0.5 µM
  viral loads and protein expression in lung airway organoids: significantly reduced viral loads and protein expression in a dose-dependent manner
RSV F protein [5]
  effect on F protein levels: time- and concentration-dependent
RSV F protein [9]
  degradation of the F protein during RSV infection: induced significant degradation of the F protein
